Measurements published in patent US20050209278A1, “Piperidinyl- and piperazinyl-sulfonylmethyl hydroxamic acids and their use as protease inhibitors” (priority 2002, published 2005).
Where a name gives a salt, the structure may show the parent alone.

Target: T1, MMP-9 (Homo sapiens, UniProt P14780)
T1 construct: made in house; host or cells: MMP-9-transfected HT1080 cells (spent media)
Assay: In vitro MMP inhibition, Ki determination (fluorogenic substrate II)
Type: biochemical
Conditions: human recombinant enzyme; 4 μM substrate II; room temperature, 1 hr
Description: Several hydroxamic acids and salts thereof were analyzed in in vitro assays to determine their ability to inhibit the MMP cleavage of peptide substrates. […] and IC50 constants were calculated from the assayed hydroxamic acid-MMP interactions.
Human recombinant MMP-1, MMP-2, MMP-9, MMP-13, and MMP-14 were used in this assay. All enzymes were prepared in Assignee's laboratories following usual laboratory procedures. Protocols for the preparation and use of these enzymes are available in the scientific literature. See, e.g., Enzyme Nomenclature (Academic Press, San Diego, Calif., 1992) (and the citations therein). See also, Freije et al., “Molecular cloning and expression of collagenase-3, a novel human matrix metalloproteinase produced by breast carcinomas,” J Biol. Chem., 269(24), 16766-16773 (1994).
The MMP-9 proenzyme was purified by gelatin Sepharose chromatography from spent media of MMP-9-transfected HT1080 cells provided by Dr. Howard Welgus of Washington University (St. Louis, Mo.).
All MMPs were activated using 4-aminophenylmercuric acetate (“APMA”, Sigma Chemical, St. Louis, Mo.) or trypsin. MMP-9 also was activated using human recombinant MMP-3 (purified in Assignee's laboratory following standard cloning and purification techniques).
Two fluorogenic, methoxycoumarin-containing polypeptide substrates were used in the MMP inhibition assays: [drawing 427] Here, “Dpa” is 3-(2,4-dinitrophenyl)-L-2,3-diaminopropionyl group, and “MCA” is 7-methoxycoumarin-4-yl acetyl. Substrate (I) was purchased from Baychem (Redwood City, Calif.), and substrate II was prepared Assignee's laboratory. Substrate I was used in the IC50 determination assays, while substrate II was used in the Ki determination assays. In the absence of MMP inhibitory activity, either substrate is cleaved at the Gly-Leu peptide bond. This cleavage separates the highly fluorogenic peptide from the 2,4-dinitrophenyl quencher, thus resulting in increase of fluorescent intensity.
The stock solutions of the assayed hydroxamic acids (or salts thereof) were prepared in 1% dimethyl sulfoxide (DMSO). These stock solutions were diluted in Buffer A (100 mM Tris-HCl, 100 mM NaCl, 10 mM CaCl2, 0.05% polyoxyethylene 23 lauryl ether, pH 7.5) to obtain solutions with different hydroxamic acid concentrations, i.e., assay solutions with different concentrations of the assayed MMP inhibitory compound. The experiment controls contained the same amount of Buffer A/DMSO as the assayed sample, but contained no hydroxamic acid (or salt thereof).
The assays from which the Ki determinations were made were performed as follows. The assayed hydroxamic acid samples were incubated in separate wells of untreated white polystyrene plates (Nunc Nalgene International, Rochester, N.Y.), and analyzed on a Tecan SpectraFlour Plus plate reader. The excitation wavelength was 330 nm, and the emission wavelength—420 nm. All samples (assayed hydroxamic acids and controls) were incubated in separate plate wells at room temperature for 1 hr in the presence of 4 μM of MMP substrate (II). In the absence of MMP inhibitory activity, substrate II was cleaved at the Gly-Leu bond resulting in an increase of relative fluorescence. Inhibition was observed as a reduced rate of this increase in relative fluorescence. The various hydroxamic acids were analyzed using a single low enzyme concentration with a single substrate concentration fixed at or below the Km. This protocol is a modification of method by Knight et al., FEBS Lett., 296(3), 263-266 (1992). Apparent inhibitory constants were determined by non-linear regression of reaction velocity as a function of inhibitor and enzyme concentration using Morrison's equation, as described by Kuzmic, Anal. Biochem. 286, 45-50 (2000). Modifications were made in the non-linear regression method to allow a common control reaction rate and effective enzyme concentration to be shared between all dose-response relationships on a given assay plate. […]

T1 sequence (P14780 107-707 limits assumed): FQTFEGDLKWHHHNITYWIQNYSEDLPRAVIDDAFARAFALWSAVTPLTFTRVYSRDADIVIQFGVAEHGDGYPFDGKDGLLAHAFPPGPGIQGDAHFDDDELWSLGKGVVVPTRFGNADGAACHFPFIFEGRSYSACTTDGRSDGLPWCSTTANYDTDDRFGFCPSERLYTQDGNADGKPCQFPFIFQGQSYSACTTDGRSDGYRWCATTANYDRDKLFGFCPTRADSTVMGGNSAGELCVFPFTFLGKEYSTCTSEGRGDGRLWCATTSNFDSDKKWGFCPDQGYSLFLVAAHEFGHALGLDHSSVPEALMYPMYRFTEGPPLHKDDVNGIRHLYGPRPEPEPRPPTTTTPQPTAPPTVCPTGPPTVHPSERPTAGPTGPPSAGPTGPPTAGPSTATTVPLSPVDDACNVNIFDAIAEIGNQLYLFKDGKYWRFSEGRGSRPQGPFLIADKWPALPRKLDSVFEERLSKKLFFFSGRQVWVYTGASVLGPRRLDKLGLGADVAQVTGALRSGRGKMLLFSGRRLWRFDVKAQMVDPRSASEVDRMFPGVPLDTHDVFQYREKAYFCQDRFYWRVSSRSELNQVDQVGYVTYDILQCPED

| SMILES | Ki |
| --- | --- |
| O=C(NO)C1(S(=O)(=O)N2CCC(c3ccc(OCC(F)(F)F)cc3)CC2)CCN(C2CC2)CC1 [Example 25, 1-cyclopropyl-N-hydroxy-4-({4-[4-(2,2,2-trifluoroethoxy)phenyl]piperidin-1-yl}sulfonyl)piperidine-4-carboxamide Hydrochloride] | 6 nM |
| O=C(NO)C1(S(=O)(=O)N2CCN(c3ccc(OCCCC(F)(F)F)cc3)CC2)CCOCC1 [Example 7, N-hydroxy-4-({4-[4-(4,4,4-trifluorobutoxy)phenyl]piperazin-1-yl}sulfonyl)tetrahydro-2H-pyran-4-carboxamide Hydrochloride] | 7.35 nM |
| CCCCOc1ccc(C2CCN(S(=O)(=O)C3(C(=O)NO)CCN(CCOC)CC3)CC2)cc1 [Example 16, 4-{[4-(4-butoxyphenyl)piperidin-1-yl]sulfonyl}-N-hydroxy-1-(2-methoxyethyl)piperidine-4-carboxamide Hydrochloride] | 0.47 nM |
| COCCN1CCC(C(=O)NO)(S(=O)(=O)N2CCC(c3ccc(OCCCC(F)(F)F)cc3)CC2)CC1 [Example 20, N-hydroxy-1-(2-methoxyethyl)-4-({4-[4-(4,4,4-trifluorobutoxy)phenyl]piperidin-1-yl}sulfonyl)piperidine-4-carboxamide Hydrochloride] | 3.86 nM |
| O=C(NO)C1(S(=O)(=O)N2CCN(c3ccc(OC(F)(F)C(F)F)cc3)CC2)CCOCC1 [Example 4, 4-({4-[4-(1,1,2,2-tetrafluoroethoxy)phenyl]piperazinyl}sulfonyl)perhydro-2H-pyran-4-carbohydroxamic Acid] | 0.739 nM |

Same assay, conditions: value not in parenthesis

| SMILES | Ki |
| --- | --- |
| CCCCOc1ccc(N2CCN(S(=O)(=O)C3(C(=O)NO)CCN(C(=O)OCC(F)(F)F)CC3)CC2)cc1 [Example 115] | 4.97 nM |
| O=C(NO)C1(S(=O)(=O)N2CCN(c3ncccn3)CC2)CCOCC1 [Example 106] | 235 nM |
| CCCCCCCCCc1cnc(N2CCN(S(=O)(=O)C3(C(=O)NO)CCOCC3)CC2)nc1 [Example 110] | 40.6 nM |
| CCc1ccc(N2CCN(S(=O)(=O)C3(C(=O)NO)CCOCC3)CC2)nc1 [Example 114] | 2.64 nM |
| CCCCOc1ccc(N2CCN(S(=O)(=O)C3(C(=O)NO)CCN(C(=O)c4cc5ccccc5o4)CC3)CC2)cc1 [Example 127] | 24 nM |
| O=C(NO)C1(S(=O)(=O)N2CCN(c3ncccn3)CC2)CCOCC1 [Example 107] | 153 nM |
| COc1ccc(N2CCN(S(=O)(=O)C3(C(=O)NO)CCOCC3)CC2)nc1 [Example 108] | 401 nM |
| CCCCCCCCCc1cnc(N2CCN(S(=O)(=O)C3(C(=O)NO)CCOCC3)CC2)nc1 [Example 111] | 30.6 nM |
| CCCCOc1ccc(N2CCN(S(=O)(=O)C3(C(=O)NO)CCN(c4ccc(O)cc4)CC3)CC2)cc1 [Example 121] | 3.6 nM |
| O=C(c1cccnc1)N1CCC(C(=O)NO)(S(=O)(=O)N2CCN(c3ccc(OCCCC(F)(F)F)cc3)CC2)CC1 [Example 122] | 0.01 nM |

The remaining lines, values ahead:

| Ki | SMILES |
| --- | --- |
| 6.1 nM | O=C(NO)C1(S(=O)(=O)N2CCN(c3ccc(OCCCC(F)(F)F)cc3)CC2)CCN(C2CC2)CC1 [Example 153] |
| 1.18 nM | CCCCOc1ccc(N2CCN(S(=O)(=O)C3(C(=O)NO)CCOCC3)CC2)cc1 [Example 145] |
| 13.7 nM | CCCCCc1ccc(N2CCN(S(=O)(=O)C3(C(=O)NO)CCN(c4ccc(C)cc4)CC3)CC2)cc1 [Example 147] |
| 29 nM | CCCCOc1ccc(N2CCN(S(=O)(=O)C3(C(=O)NO)CCN(C(=O)c4cc5ccccc5s4)CC3)CC2)cc1 [Example 143] |
| 0.196 nM | CCCc1ccc(N2CCN(S(=O)(=O)C3(C(=O)NO)CCOCC3)CC2)nc1 [Example 136] |
| 2.29 nM | CCCCc1ccc(N2CCN(S(=O)(=O)C3(C(=O)NO)CCN(c4ccc(C)cc4)CC3)CC2)cc1 [Example 146] |
| 2.31 nM | COCCN1CCC(C(=O)NO)(S(=O)(=O)N2CCN(c3ccc(OCC(F)(F)C(F)(F)F)cc3)CC2)CC1 [Example 144] |
| 7.45 nM | CCCCOc1ccc(N2CCN(S(=O)(=O)C3(C(=O)NO)CCN(c4cc(C)ccn4)CC3)CC2)cc1 [Example 139] |
| 31.4 nM | CCCCOc1ccc(N2CCN(S(=O)(=O)C3(C(=O)NO)CCN(c4nc5ccccc5o4)CC3)CC2)cc1 [Example 150] |
